Tests used:
Format in all cases: biochemical
p110β/p85α = p110β/p85α (Homo sapiens, UniProt P42338); assay: Transcreener KINASE Assay, kinase inhibition of p110β/p85α; settings: for PI3Kβ IH % @ 1 uM: 1 uM test compound; for IC50: read-out: PI3Kβ IC50
In short: (§1)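 Recombinant human PI3K heterodimers (p110/p85α) incubated with compound (2% DMSO final) in HEPES/NaCl/EGTA/CHAPS/MgCl2/DTT buffer with 30 uM PIP2 and 10 uM ATP (as added) for 80 min at room temperature.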

p110δ/p85α = p110δ/p85α (Homo sapiens, UniProt O00329); assay: Transcreener KINASE Assay, kinase inhibition of p110δ/p85α; settings: for PI3Kδ IH % @ 1 uM: 1 uM test compound; for IC50: read-out: PI3Kδ IC50
Sequence of p110δ/p85α (O00329 whole entry): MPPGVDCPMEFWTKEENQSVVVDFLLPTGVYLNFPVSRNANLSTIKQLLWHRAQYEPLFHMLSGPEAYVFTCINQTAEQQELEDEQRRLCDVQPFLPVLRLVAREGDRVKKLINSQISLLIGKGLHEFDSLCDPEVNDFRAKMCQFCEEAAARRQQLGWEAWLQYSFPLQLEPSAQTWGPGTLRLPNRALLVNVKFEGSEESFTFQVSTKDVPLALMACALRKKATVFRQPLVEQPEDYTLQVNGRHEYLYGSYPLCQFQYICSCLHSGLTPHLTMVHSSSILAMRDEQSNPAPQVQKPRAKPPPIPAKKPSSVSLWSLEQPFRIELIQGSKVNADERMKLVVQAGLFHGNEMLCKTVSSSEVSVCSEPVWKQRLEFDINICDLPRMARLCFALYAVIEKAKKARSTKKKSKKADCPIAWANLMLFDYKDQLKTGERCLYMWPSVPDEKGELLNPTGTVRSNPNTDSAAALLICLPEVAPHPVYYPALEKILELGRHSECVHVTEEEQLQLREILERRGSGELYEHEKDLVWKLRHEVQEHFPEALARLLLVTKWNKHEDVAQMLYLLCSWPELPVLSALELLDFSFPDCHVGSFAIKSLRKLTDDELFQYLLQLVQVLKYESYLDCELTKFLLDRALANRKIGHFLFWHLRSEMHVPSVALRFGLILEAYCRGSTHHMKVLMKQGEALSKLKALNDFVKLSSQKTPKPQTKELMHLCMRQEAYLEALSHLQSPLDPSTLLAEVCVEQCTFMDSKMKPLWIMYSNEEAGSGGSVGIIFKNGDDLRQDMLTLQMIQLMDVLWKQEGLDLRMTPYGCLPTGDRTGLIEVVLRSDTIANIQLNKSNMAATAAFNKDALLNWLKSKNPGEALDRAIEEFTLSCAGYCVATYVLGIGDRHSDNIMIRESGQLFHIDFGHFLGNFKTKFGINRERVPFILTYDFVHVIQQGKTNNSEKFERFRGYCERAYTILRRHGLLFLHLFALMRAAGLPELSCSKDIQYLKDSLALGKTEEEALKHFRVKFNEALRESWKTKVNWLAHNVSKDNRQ
Sequence of p110δ/p85α (P27986 whole entry partner): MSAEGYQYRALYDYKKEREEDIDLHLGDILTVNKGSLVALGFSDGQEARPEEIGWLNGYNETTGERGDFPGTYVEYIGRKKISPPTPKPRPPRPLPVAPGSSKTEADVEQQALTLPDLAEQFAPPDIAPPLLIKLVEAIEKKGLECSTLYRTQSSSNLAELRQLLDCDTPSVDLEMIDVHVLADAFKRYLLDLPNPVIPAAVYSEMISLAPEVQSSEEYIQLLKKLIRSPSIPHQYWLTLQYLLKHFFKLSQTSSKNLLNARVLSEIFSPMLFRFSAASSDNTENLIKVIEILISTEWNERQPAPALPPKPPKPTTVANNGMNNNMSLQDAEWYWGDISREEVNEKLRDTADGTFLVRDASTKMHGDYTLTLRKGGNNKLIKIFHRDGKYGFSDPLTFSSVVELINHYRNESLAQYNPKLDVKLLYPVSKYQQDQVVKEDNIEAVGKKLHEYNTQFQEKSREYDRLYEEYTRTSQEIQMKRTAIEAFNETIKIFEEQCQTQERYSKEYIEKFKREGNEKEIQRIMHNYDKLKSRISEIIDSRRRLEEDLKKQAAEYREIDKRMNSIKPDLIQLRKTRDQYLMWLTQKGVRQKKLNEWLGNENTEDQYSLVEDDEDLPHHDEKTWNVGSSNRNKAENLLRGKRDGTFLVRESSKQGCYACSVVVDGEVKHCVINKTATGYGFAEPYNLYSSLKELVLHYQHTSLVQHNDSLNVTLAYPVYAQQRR
In short: as §1

p110γ = p110γ (Homo sapiens, UniProt P48736); assay: Transcreener KINASE Assay, kinase inhibition of p110γ; settings: for PI3Kγ IH % @ 1 uM: 1 uM test compound; for IC50: read-out: PI3Kγ IC50
Sequence of p110γ (P48736 whole entry): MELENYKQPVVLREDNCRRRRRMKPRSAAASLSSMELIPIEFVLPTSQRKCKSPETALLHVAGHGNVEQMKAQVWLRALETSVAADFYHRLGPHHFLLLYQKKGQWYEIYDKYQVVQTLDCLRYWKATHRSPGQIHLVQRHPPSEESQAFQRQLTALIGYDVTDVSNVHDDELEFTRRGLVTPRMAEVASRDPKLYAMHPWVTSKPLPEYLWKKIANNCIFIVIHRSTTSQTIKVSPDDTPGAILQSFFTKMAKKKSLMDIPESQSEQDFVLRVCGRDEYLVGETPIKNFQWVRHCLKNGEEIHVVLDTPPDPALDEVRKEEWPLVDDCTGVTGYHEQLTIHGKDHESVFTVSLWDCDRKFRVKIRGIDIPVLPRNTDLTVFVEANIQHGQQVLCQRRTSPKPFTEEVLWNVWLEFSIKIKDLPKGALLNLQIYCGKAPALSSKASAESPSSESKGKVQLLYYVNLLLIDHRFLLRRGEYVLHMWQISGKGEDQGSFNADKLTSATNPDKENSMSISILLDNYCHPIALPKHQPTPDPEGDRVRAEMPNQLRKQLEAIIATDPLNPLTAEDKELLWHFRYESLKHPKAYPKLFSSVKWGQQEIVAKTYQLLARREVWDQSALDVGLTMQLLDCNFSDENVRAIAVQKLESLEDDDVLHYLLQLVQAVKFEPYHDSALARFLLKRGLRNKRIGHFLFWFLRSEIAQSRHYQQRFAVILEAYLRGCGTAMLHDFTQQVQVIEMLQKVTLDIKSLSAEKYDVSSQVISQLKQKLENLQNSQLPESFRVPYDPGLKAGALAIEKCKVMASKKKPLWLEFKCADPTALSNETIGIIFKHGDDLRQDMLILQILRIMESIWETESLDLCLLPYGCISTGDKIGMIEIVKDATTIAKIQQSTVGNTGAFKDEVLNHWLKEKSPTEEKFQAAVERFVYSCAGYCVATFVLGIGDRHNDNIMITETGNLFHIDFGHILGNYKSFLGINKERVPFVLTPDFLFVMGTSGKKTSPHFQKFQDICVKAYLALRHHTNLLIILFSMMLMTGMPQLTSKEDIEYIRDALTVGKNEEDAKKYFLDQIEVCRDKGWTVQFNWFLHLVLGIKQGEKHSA
In short: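 Steps: enzyme reaction with compound, 80 min at room temperature; add ADP detection reagent, incubate 60 min at room temperature; read fluorescence polarization. Inhibition and IC50 values are derived from the ADP signal.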

Sequence of p110β/p85α (P42338 whole entry): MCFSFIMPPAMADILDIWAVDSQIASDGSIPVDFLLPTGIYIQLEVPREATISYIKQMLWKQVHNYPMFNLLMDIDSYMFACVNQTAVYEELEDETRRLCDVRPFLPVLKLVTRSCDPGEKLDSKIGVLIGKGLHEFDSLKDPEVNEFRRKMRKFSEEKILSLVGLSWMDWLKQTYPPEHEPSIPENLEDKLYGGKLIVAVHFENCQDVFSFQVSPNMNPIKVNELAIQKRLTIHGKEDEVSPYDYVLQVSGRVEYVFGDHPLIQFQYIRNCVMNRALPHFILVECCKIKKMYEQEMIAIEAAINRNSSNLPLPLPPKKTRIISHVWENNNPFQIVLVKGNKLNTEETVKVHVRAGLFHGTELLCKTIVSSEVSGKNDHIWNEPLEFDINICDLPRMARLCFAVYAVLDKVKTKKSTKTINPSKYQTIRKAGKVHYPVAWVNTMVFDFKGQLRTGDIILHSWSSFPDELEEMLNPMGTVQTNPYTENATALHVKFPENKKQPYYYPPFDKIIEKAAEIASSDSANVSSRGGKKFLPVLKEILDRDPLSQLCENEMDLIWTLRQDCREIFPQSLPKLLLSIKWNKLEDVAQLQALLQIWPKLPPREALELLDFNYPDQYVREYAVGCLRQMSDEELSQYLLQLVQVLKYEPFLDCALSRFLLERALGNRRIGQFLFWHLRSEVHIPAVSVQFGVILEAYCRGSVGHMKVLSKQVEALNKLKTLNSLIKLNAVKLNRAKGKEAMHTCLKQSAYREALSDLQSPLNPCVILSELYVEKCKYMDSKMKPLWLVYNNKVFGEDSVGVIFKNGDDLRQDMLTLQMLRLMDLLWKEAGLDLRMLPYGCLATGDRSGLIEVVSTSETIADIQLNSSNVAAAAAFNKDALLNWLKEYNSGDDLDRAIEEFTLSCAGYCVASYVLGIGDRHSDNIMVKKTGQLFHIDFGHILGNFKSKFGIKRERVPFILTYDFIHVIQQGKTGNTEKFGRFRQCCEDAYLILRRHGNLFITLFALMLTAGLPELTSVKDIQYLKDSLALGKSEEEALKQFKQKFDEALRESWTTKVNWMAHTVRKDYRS
Sequence of p110β/p85α (P27986 2-724 partner): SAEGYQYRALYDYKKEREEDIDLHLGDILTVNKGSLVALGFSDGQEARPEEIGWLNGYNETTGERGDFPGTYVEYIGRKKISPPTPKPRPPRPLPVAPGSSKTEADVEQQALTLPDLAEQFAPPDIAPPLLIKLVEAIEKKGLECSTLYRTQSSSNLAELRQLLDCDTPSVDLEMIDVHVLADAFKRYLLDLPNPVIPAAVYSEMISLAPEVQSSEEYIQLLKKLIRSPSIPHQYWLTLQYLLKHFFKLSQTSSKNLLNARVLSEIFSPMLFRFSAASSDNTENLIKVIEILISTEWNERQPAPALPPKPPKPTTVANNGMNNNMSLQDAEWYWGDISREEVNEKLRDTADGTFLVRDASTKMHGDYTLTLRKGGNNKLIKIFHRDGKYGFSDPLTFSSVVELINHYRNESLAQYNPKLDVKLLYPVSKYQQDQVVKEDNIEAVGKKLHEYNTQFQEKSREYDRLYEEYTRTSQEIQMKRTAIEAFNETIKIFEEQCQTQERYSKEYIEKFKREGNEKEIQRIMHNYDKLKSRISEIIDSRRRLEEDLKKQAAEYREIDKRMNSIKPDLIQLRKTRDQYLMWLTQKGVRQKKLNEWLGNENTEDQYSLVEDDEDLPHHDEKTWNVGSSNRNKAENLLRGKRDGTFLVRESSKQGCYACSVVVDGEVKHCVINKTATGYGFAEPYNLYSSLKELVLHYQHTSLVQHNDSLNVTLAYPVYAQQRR

Structure (SMILES) | PI3Kβ IH % @ 1 uM (p110β/p85α) | IC50 (p110β/p85α) | PI3Kδ IH % @ 1 uM (p110δ/p85α) | PI3Kγ IH % @ 1 uM (p110γ) | IC50 (p110γ) | IC50 (p110δ/p85α)
COc1ccc(-c2c[nH]c3ncnc(N4CC[C@H]4c4nn5ccc(F)c5c(=O)n4-c4ccccc4)c23)cn1 [Compound 182] | 93.3% | 62 nM | >100% | 94.9% | 7 nM | –
Nc1ccc(-c2c[nH]c3ncnc(N4CC[C@H]4c4nn5ccc(F)c5c(=O)n4-c4ccccc4)c23)cn1 [Compound 183] | 77.2% | 331 nM | >100% | >100% | 5 nM | –
N#Cc1ncc(-c2c[nH]c3ncnc(N4CC[C@H]4c4nn5ccc(F)c5c(=O)n4-c4ccccc4)c23)cn1 [Compound 184] | >100% | 38 nM | >100% | 98.4% | 8 nM | 0.5 nM
CC(=O)c1c[nH]c2ncnc(N3CC[C@H]3c3nn4ccc(Cl)c4c(=O)n3-c3ccccc3)c12 [Compound 185, (S)-2-(1-(5-acetyl-7H-pyrrolo[2,3-d]pyrimidin-4-yl)azetidin-2-yl)-5-chloro-3-phenylpyrrolo[2,1-f][1,2,4]triazin-4(3H)-one] | 45.9% | – | >100% | 99.0% | – | 6 nM
O=c1c2c(F)ccn2nc([C@@H]2CCCN2c2ncnc3[nH]cnc23)n1-c1ccccc1 [Compound 190] | 52.9% | – | 92.0% | 84.1% | – | 3 nM
O=c1c2c(F)ccn2nc([C@@H]2CCCN2c2ncnc3[nH]cnc23)n1-c1cccc(F)c1 [Compound 191] | 56.8% | – | >100% | >100% | 32 nM | 3 nM
CS(=O)(=O)c1cccc(-n2c([C@@H]3CCCN3c3ncnc4[nH]cc(C#N)c34)nn3ccc(Cl)c3c2=O)c1 [Compound 192] | 65.3% | – | 98.5% | >100% | 18 nM | 4 nM
CS(=O)(=O)c1cccc(-n2c([C@@H]3CCCN3c3ncnc4[nH]cnc34)nn3ccc(Cl)c3c2=O)c1 [Compound 193] | 31.5% | – | >100% | 93.7% | 121 nM | 23 nM
N#Cc1c(N)ncnc1N1CC[C@H]1c1nn2ccc(Br)c2c(=O)n1-c1ccccc1 [Compound 194] | 29.5% | – | >100% | 75.1% | 150 nM | 23 nM
C[S+]([O-])c1c[nH]c2ncnc(N3CC[C@H]3c3nn4ccc(Cl)c4c(=O)n3-c3ccccc3)c12 (stereo partly drawn) [Compound 196] | 32.3% | – | 97.1% | >100% | 65 nM | 69 nM
C[S+]([O-])c1c[nH]c2ncnc(N3CC[C@H]3c3nn4ccc(Cl)c4c(=O)n3-c3ccc(F)cc3)c12 (stereo partly drawn) [Compound 199] | 17.1% | – | 59.5% | 94.6% | 34 nM | 2000 nM
CNc1ncnc(N2CCC[C@H]2c2nn3ccc(Cl)c3c(=O)n2-c2ccccc2)n1 [Compound 200] | 28.2% | – | 90.9% | 93.4% | 190 nM | 196 nM
Cc1nc(N)nc(N2CCC[C@H]2c2nn3ccc(Cl)c3c(=O)n2-c2ccccc2)n1 [Compound 201] | 25.3% | – | >100% | >100% | 49 nM | 19 nM
O=c1c2c(Cl)ccn2nc([C@@H]2CCCCN2c2ncnc3[nH]cnc23)n1-c1ccccc1 [Compound 203] | 23.3% | – | 94.6% | 65.3% | – | 100 nM
C[S+]([O-])c1c[nH]c2ncnc(N3CC[C@H]3c3nn4ccc(F)c4c(=O)n3-c3ccccc3)c12 (stereo partly drawn) [Compound 204] | 28.9% | – | 85.1% | 84.2% | 250 nM | 109 nM
Cc1nc(N)nc(N2CC[C@H]2c2nn3ccc(Cl)c3c(=O)n2-c2ccccc2)n1 [Compound 205] | 21.6% | – | 76.1% | 76.1% | 229 nM | 74 nM
N#Cc1cnc(N)nc1N1CCC[C@H]1c1nn2ccc(Cl)c2c(=O)n1-c1ccccc1 [Compound 207] | 80.4% | 298 nM | >100% | >100% | – | 1 nM
CC(=O)c1c[nH]c2ncnc(N3CCC[C@H]3c3nn4ccc(Cl)c4c(=O)n3-c3ccc(F)cc3)c12 [Compound 208] | 81.7% | 89 nM | 97.4% | 92.2% | 3 nM | 4 nM

Structure (SMILES) | PI3Kβ IH % @ 1 uM (p110β/p85α) | IC50 (p110β/p85α) | PI3Kδ IH % @ 1 uM (p110δ/p85α) | PI3Kγ IH % @ 1 uM (p110γ) | IC50 (p110γ) | IC50 (p110δ/p85α)
C[S+]([O-])c1c[nH]c2ncnc(N3CCC[C@H]3c3nn4ccc(Cl)c4c(=O)n3-c3ccc(F)cc3)c12 (stereo partly drawn) [Compound 209] | 53.5% | – | 94.2% | 89.6% | 30 nM | 12 nM
CC(=O)c1c[nH]c2ncnc(N3CCC[C@H]3c3nn4ccc(Cl)c4c(=O)n3-c3cccc(F)c3)c12 [Compound 210] | 69.1% | 191 nM | 98.6% | 92.0% | – | 2 nM
CC(=O)c1c[nH]c2ncnc(N3CCC[C@H]3c3nn4ccc(Cl)c4c(=O)n3-c3ccccc3)c12 [Compound 211] | 88.3% | 51 nM | 98.4% | 92.2% | – | 0.5 nM
N#Cc1cnc(N)nc1N1CC[C@H]1c1nn2ccc(Cl)c2c(=O)n1-c1ccccc1 [Compound 212] | 37.0% | – | 95.3% | >100% | – | 12 nM
O=c1c2c(Cl)ccn2nc([C@@H]2C[C@H](F)CN2c2ncnc3[nH]cnc23)n1-c1cccc(F)c1 [Compound 214] | 65.7% | 271 nM | 99.7% | >100% | 12 nM | 1 nM
Nc1ncc(F)c(N2CCC[C@H]2c2nn3ccc(Cl)c3c(=O)n2-c2ccccc2)n1 [Compound 215] | 32.8% | – | 98.5% | 88.1% | 135 nM | 52 nM
CC(=O)c1c[nH]c2ncnc(N3C[C@@H](F)C[C@H]3c3nn4ccc(Cl)c4c(=O)n3-c3cccc(F)c3)c12 [Compound 216] | 65.1% | – | 96.5% | 91.8% | 3 nM | 2 nM
CC(=O)c1c[nH]c2ncnc(N3CCC[C@H]3c3nn4ccc(F)c4c(=O)n3-c3ccccc3)c12 [Compound 218] | 85.0% | 165 nM | 97.3% | 95.7% | – | 2 nM
C[S+]([O-])c1c[nH]c2ncnc(N3CCC[C@H]3c3nn4ccc(F)c4c(=O)n3-c3ccccc3)c12 (stereo partly drawn) [Compound 219] | 75.1% | 358 nM | 98.4% | 87.4% | 14 nM | 3 nM
O=c1c2c(Cl)ccn2nc([C@@H]2CCCN2c2ncnc3[nH]nnc23)n1-c1ccccc1 [Compound 220] | 25.1% | – | 84.8% | 54.8% | – | 242 nM
CSc1n[nH]c2ncnc(N3CCC[C@H]3c3nn4ccc(Cl)c4c(=O)n3-c3ccccc3)c12 [Compound 221] | 16.3% | – | 68.0% | 88.6% | 24 nM | –
CSc1n[nH]c2ncnc(N3CC[C@H]3c3nn4ccc(Cl)c4c(=O)n3-c3ccccc3)c12 [Compound 222] | 40.5% | – | 43.0% | 88.1% | 21 nM | –
Nc1ncc(Cl)c(N2CC[C@H]2c2nn3ccc(Cl)c3c(=O)n2-c2ccccc2)n1 [Compound 223] | 22.9% | – | 81.0% | 71.6% | – | 59 nM
C#Cc1cnc(N)nc1N1CC[C@H]1c1nn2ccc(Cl)c2c(=O)n1-c1ccccc1 [Compound 224] | 22.7% | – | 85.9% | >100% | – | 60 nM
N#Cc1c[nH]c2ncnc(N3C[C@@H](F)C[C@H]3c3nn4ccc(F)c4c(=O)n3-c3ccccc3)c12 [Compound 225] | 96.3% | 54 nM | >100% | >100% | 5 nM | 1 nM
COCCNC(=O)c1c[nH]c2ncnc(N3CCC[C@H]3c3nn4ccc(Cl)c4c(=O)n3-c3ccccc3)c12 [Compound 226] | 41.8% | – | 98.7% | >100% | 30 nM | 9 nM
N#Cc1cnc(N)nc1N1C[C@@H](F)C[C@H]1c1nn2ccc(F)c2c(=O)n1-c1ccccc1 [Compound 227] | 59.6% | – | >100% | >100% | 18 nM | 5 nM

— patent US20150307520A1, “NOVEL HETEROARYL AND HETEROCYCLE COMPOUNDS, COMPOSITIONS AND METHODS THEREOF” (HUTCHISON MEDIPHARMA LIMITED, priority 2012, published 2015)
